Laboratory results: US10703743B2 (priority 2010, dated 2020)
Where two headings read alike, the source gives them in different places.

Tests used:
gp120-CD4 interaction = gp120-CD4 interaction (Human immunodeficiency virus type 1 group M subtype B, UniProt P03375); assay: biochemical; type: binding, HIV-1
MT-2 = MT-2 activity; type: cell-based; conditions: Homo sapiens, MT2
HIV-1 isolate SF162 = assay: viral inhibition assay, HIV-1 isolate SF162; type: cell-based; conditions: Human immunodeficiency virus 1, TZM-b1, read-out: IC50 SF162
Procedure: (§1) In this assay, viral inhibition was determined by HIV Tat-induced luciferase (Luc) reporter gene expression after a single round of virus infection in TZM-b1 cells according to the method of Platt, et al., J. Virol. 1998, 72, 2855-64.

HIV-1 isolate BaL = assay: viral inhibition assay, HIV-1 isolate BaL; type: cell-based
Procedure: as §1

HIV-1 isolate HXBc2 = assay: viral inhibition assay, HIV-1 isolate HXBc2; type: cell-based; conditions: Human immunodeficiency virus 1, TZM-b1, read-out: IC50 HXBc2
Procedure: as §1

HIV-1 isolate ADA = assay: viral inhibition assay, HIV-1 isolate ADA; type: cell-based
Procedure: as §1

HIV-1 isolate JR-FL = assay: viral inhibition assay, HIV-1 isolate JR-FL; type: cell-based; conditions: Human immunodeficiency virus 1, TZM-b1, read-out: IC50 JR-FL
Procedure: as §1

SMILES	IC50 (gp120-CD4 interaction) [nM]	IC50 (MT-2) [nM]	further results
COc1ccc(-c2ccc(CNC(=O)COCCOCCOCCOCCn3cc(COCCOCCOCCOCCNc4ccc([N+](=O)[O-])cc4[N+](=O)[O-])nn3)o2)c2[nH]cc(C(=O)C(=O)N3CCN(C(=O)c4ccccc4C)CC3)c12	5140	~25000	
COc1ccc(-c2ccc(CNC(=O)COCCOCCOCCOCCn3cc(COCCOCCOCCOCCNc4ccc([N+](=O)[O-])cc4[N+](=O)[O-])nn3)o2)c2[nH]cc(C(=O)C(=O)N3CCN(C(=O)c4cccc(C)c4)CC3)c12	1360	~600	
COc1ccc(-c2ccc(CNC(=O)COCCOCCOCCOCCn3cc(COCCOCCOCCOCCNc4ccc([N+](=O)[O-])cc4[N+](=O)[O-])nn3)o2)c2[nH]cc(C(=O)C(=O)N3CCN(C(=O)c4ccc(C)cc4)CC3)c12	447	25	
CCc1ccc(C(=O)N2CCN(C(=O)C(=O)c3c[nH]c4c(-c5ccc(CNC(=O)COCCOCCOCCOCCn6cc(COCCOCCOCCOCCNc7ccc([N+](=O)[O-])cc7[N+](=O)[O-])nn6)o5)ccc(OC)c34)CC2)cc1	469	~600	
COc1ccc(-c2ccc(CNC(=O)COCCOCCOCCOCCn3cc(COCCOCCOCCOCCNc4ccc([N+](=O)[O-])cc4[N+](=O)[O-])nn3)o2)c2[nH]cc(C(=O)C(=O)N3CCN(C(=O)c4ccc(C(C)C)cc4)CC3)c12	953		
COc1ccc(-c2ccc(CNC(=O)COCCOCCOCCOCCn3cc(COCCOCCOCCOCCNc4ccc([N+](=O)[O-])cc4[N+](=O)[O-])nn3)o2)c2[nH]cc(C(=O)C(=O)N3CCN(C(=O)c4ccc5ccccc5c4)CC3)c12	5240	~5000	
COc1ccc(-c2ccc(CNC(=O)COCCOCCOCCOCCn3cc(COCCOCCOCCOCCNc4ccc([N+](=O)[O-])cc4[N+](=O)[O-])nn3)o2)c2[nH]cc(C(=O)C(=O)N3CCN(C(=O)c4ccccc4O)CC3)c12	490	200	
COc1ccc(-c2ccc(CNC(=O)COCCOCCOCCOCCn3cc(COCCOCCOCCOCCNc4ccc([N+](=O)[O-])cc4[N+](=O)[O-])nn3)o2)c2[nH]cc(C(=O)C(=O)N3CCN(C(=O)c4cccc(O)c4)CC3)c12	200	90	
COc1ccc(-c2ccc(CNC(=O)COCCOCCOCCOCCn3cc(COCCOCCOCCOCCNc4ccc([N+](=O)[O-])cc4[N+](=O)[O-])nn3)o2)c2[nH]cc(C(=O)C(=O)N3CCN(C(=O)c4ccc(O)cc4)CC3)c12	239	90	
COc1ccc(-c2ccc(CNC(=O)COCCOCCOCCOCCn3cc(COCCOCCOCCOCCNc4ccc([N+](=O)[O-])cc4[N+](=O)[O-])nn3)o2)c2[nH]cc(C(=O)C(=O)N3CCN(C(=O)c4cc(O)cc(O)c4)CC3)c12	745	230	
COc1ccc(-c2ccc(CNC(=O)COCCOCCOCCOCCn3cc(COCCOCCOCCOCCNc4ccc([N+](=O)[O-])cc4[N+](=O)[O-])nn3)o2)c2[nH]cc(C(=O)C(=O)N3CCN(C(=O)c4ccc(CO)cc4)CC3)c12	422	~1000	
COc1ccc(-c2ccc(CNC(=O)COCCOCCOCCOCCn3cc(COCCOCCOCCOCCNc4ccc([N+](=O)[O-])cc4[N+](=O)[O-])nn3)o2)c2[nH]cc(C(=O)C(=O)N3CCN(C(=O)c4ccccn4)CC3)c12	620	48	
COc1ccc(-c2ccc(CNC(=O)COCCOCCOCCOCCn3cc(COCCOCCOCCOCCNc4ccc([N+](=O)[O-])cc4[N+](=O)[O-])nn3)o2)c2[nH]cc(C(=O)C(=O)N3CCN(C(=O)c4cccnc4)CC3)c12	3700	1300	
COc1ccc(-c2ccc(CNC(=O)COCCOCCOCCOCCn3cc(COCCOCCOCCOCCNc4ccc([N+](=O)[O-])cc4[N+](=O)[O-])nn3)o2)c2[nH]cc(C(=O)C(=O)N3CCN(C(=O)c4ccncc4)CC3)c12	4700	9300	
COc1ccnc2[nH]cc(C(=O)C(=O)N3CCN(C(=O)c4ccccc4)C[C@H]3C)c12 [BMS-378806, 4-benzoyl-1-(2-(4-methoxy-1H-pyrrolo(2,3-b)pyridin-3-yl)-1,2-dioxoethyl)-2-methyl-, (2R)-Piperazine, reference compound]			IC50 (HIV-1 isolate SF162): 359 nM; IC50 BaL (HIV-1 isolate BaL; HIV Tat-induced luciferase reporter gene expression after a single round of virus infection in TZM-b1 cells): dnc; IC50 (HIV-1 isolate HXBc2): 31.9 nM; IC50 (HIV-1 isolate ADA; Human immunodeficiency virus 1, HIV Tat-induced luciferase reporter gene expression after a single round of virus infection in TZM-b1 cells, read-out: IC50 ADA): 344 nM; IC50 (HIV-1 isolate JR-FL): 2600 nM
COc1ccc(-c2ccc(CNC(=O)COCCOCCOCCOCCOCCOCCn3cc(COCCOCCOCCOCCNc4ccc([N+](=O)[O-])cc4[N+](=O)[O-])nn3)o2)c2[nH]cc(C(=O)C(=O)N3CCN(C(=O)c4ccccc4)CC3)c12 [C5-furan]			IC50 (HIV-1 isolate SF162): 309 nM; IC50 (HIV-1 isolate BaL; Human immunodeficiency virus 1, BAL, TZM-b1, read-out: IC50 BaL): 34.8 nM; IC50 (HIV-1 isolate HXBc2): 10.3 nM; IC50 (HIV-1 isolate ADA; Human immunodeficiency virus 1, TZM-b1, read-out: IC50 ADA): 6.35 nM; IC50 (HIV-1 isolate JR-FL): 0.72 nM
